According to the supplement of paper PMC10307832:

Tests used:
Experiment in all cases: relative viability (nuclei count vs DMSO), 5 days (fraction); higher = more cells survive
Shikonin + Olaparib = compound: CC(C)=CC[C@@H](O)C1=CC(=O)c2c(O)ccc(O)c2C1=O [Shikonin] + O=C(c1cc(Cc2n[nH]c(=O)c3ccccc23)ccc1F)N1CCN(C(=O)C2CC2)CC1 [Olaparib] (partner 8 µM)
In short: (§1)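 After 5 days of treatment, lung cancer cells in 1536-well plates were fixed and stained in a single step (final 0.05% Triton X-100, 1% formaldehyde, 1 ug/ml Hoechst) and their nuclei counted on 4× images. Treatment had been applied by pin tool the day after seeding as one drug alone or as a fixed anchor-drug dose with five library-drug doses (not always all listed) in √10 steps. Relative viability is the nuclei count of treated wells divided by that of vehicle wells, and values are medians of duplicate plates.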

[1] = compound: CC(C)N(CCCNC(=O)Nc1ccc(C(C)(C)C)cc1)C[C@H]1O[C@@H](n2ccc3c(N)ncnc32)[C@H](O)[C@@H]1O + CC(=O)Nc1cccc(-n2c(=O)n(C3CC3)c(=O)c3c(Nc4ccc(I)cc4F)n(C)c(=O)c(C)c32)c1 [Trametinib] (partner 0.02 µM)
In short: as §1

[2] = compound: CC(C)N(CCCNC(=O)Nc1ccc(C(C)(C)C)cc1)C[C@H]1O[C@@H](n2ccc3c(N)ncnc32)[C@H](O)[C@@H]1O + COc1cccc2cc(-c3nc([C@H]4CC[C@H](C(=O)O)CC4)n4ncnc(N)c34)[nH]c12 [OSI-027] (partner 0.5 µM)
In short: as §1

[3] = compound: CC(C)N(CCCNC(=O)Nc1ccc(C(C)(C)C)cc1)C[C@H]1O[C@@H](n2ccc3c(N)ncnc32)[C@H](O)[C@@H]1O + C[C@@H](Oc1cc(-c2cnn(C3CCNCC3)c2)cnc1N)c1c(Cl)ccc(F)c1Cl [Crizotinib] (partner 1 µM)
In short: as §1

| Cell Line | relative viability (Shikonin + Olaparib; first compound 0.01 µM) | relative viability (Shikonin + Olaparib; first compound 0.1 µM) | relative viability (Shikonin + Olaparib; first compound 0.3162 µM) | relative viability (Shikonin + Olaparib; first compound 1 µM) | relative viability ([1]; first compound 0.08 µM) | relative viability ([1]; first compound 0.253 µM) | relative viability ([1]; first compound 0.8 µM) | relative viability ([1]; first compound 2.53 µM) | relative viability ([1]; first compound 8 µM) | relative viability ([2]; first compound 0.08 µM) | relative viability ([2]; first compound 0.253 µM) | relative viability ([2]; first compound 0.8 µM) | relative viability ([2]; first compound 2.53 µM) | relative viability ([2]; first compound 8 µM) | relative viability ([3]; first compound 0.08 µM) | relative viability ([3]; first compound 0.253 µM) | relative viability ([3]; first compound 0.8 µM) | relative viability ([3]; first compound 2.53 µM) | relative viability ([3]; first compound 8 µM) |
| --- | --- | --- | --- | --- | --- | --- | --- | --- | --- | --- | --- | --- | --- | --- | --- | --- | --- | --- | --- |
| NCI-H1734 | 0.697 | 0.655 | 0.695 | 0.632 | 0.587 | 0.653 | 0.69 | 0.703 | 0.561 | 0.563 | 0.612 | 0.627 | 0.564 | 0.6 | 0.644 | 0.656 | 0.728 | 0.649 | 0.605 |
| HOP-62 | 0.267 | 0.455 | 0.379 | 0.676 | 0.349 | 0.432 | 0.316 | 0.347 | 0.38 | 0.864 | 0.89 | 0.767 | 0.751 | 0.681 | 0.926 | 0.982 | 0.882 | 0.748 | 0.915 |
| LOU-NH91 | 0.926 | 0.937 | 0.984 | 0.896 | 0.788 | 0.768 |  | 0.824 | 0.763 | 0.734 | 0.714 | 0.666 | 0.689 | 0.728 | 0.755 | 0.735 |  | 0.7 | 0.721 |
| ChaGo-K-1 | 0.425 | 0.438 | 0.387 | 0.462 | 0.91 | 0.875 | 0.876 | 0.876 | 0.843 | 0.525 | 0.616 | 0.471 | 0.628 | 0.585 | 1.16 | 1.22 | 1.2 | 1.14 | 1.08 |
| NCI-H23 | 0.36 | 0.248 | 0.317 | 0.313 | 0.336 |  | 0.361 | 0.547 | 0.373 | 0.594 | 0.596 | 0.574 | 0.681 | 0.645 | 0.487 |  | 0.506 | 0.694 | 0.534 |
| RERF-LC-KJ | 1.05 | 1.08 | 0.842 | 0.62 | 0.902 | 0.938 | 0.815 | 0.911 | 0.783 | 0.551 | 0.624 | 0.679 | 0.529 | 0.453 | 0.821 | 0.85 | 0.845 | 0.789 | 0.779 |
| NCI-H1437 | 0.661 | 0.678 | 0.601 | 0.521 | 0.472 | 0.521 | 0.496 | 0.428 | 0.45 | 0.804 | 0.831 | 0.81 | 0.891 | 0.867 | 0.924 | 0.923 | 0.962 | 0.899 | 0.898 |
| NCI-H596 | 0.547 | 0.728 | 0.709 | 0.605 | 0.858 | 0.759 | 0.842 | 0.753 | 0.765 | 0.672 |  | 0.507 | 0.829 | 0.748 | 0.934 | 0.796 | 0.938 | 1 | 1.12 |
| NCI-H1666 | 0.748 | 0.732 | 0.773 | 0.699 | 0.772 | 0.814 | 0.804 | 0.86 | 0.764 | 0.745 | 1.04 | 0.611 | 0.829 | 0.755 | 1.02 | 0.983 | 0.953 | 1.02 | 0.76 |
| NCI-H1651 | 0.173 | 0.188 | 0.161 | 0.178 | 0.84 | 0.85 | 0.795 | 0.859 | 0.894 | 0.671 | 0.556 | 0.653 | 0.811 | 0.77 | 0.838 | 0.836 | 0.859 | 0.824 | 0.876 |
| NCI-H1755 | 0.794 | 0.909 | 0.837 | 0.792 | 0.758 | 0.736 | 0.719 | 0.733 | 0.771 | 0.801 | 0.753 | 0.672 | 0.717 | 0.667 | 0.841 | 0.9 | 0.889 | 0.832 | 0.73 |
| NCI-H838 | 0.798 | 0.845 | 0.865 | 0.667 | 0.501 | 0.328 | 0.464 | 0.559 | 0.529 | 0.359 | 0.408 | 0.367 | 0.388 | 0.476 | 0.796 | 0.873 | 0.91 | 0.778 | 0.759 |
| HARA | 0.557 | 0.7 | 0.492 | 0.574 | 0.736 | 0.412 | 0.54 | 0.511 | 0.508 | 0.454 | 0.536 | 0.621 | 0.568 | 0.375 | 0.991 | 0.968 | 0.927 | 1.1 | 0.988 |
| NCI-H650 | 0.373 | 0.406 | 0.399 | 0.345 | 0.859 | 1.06 | 0.875 | 1.03 | 0.994 | 0.485 | 0.63 | 0.602 | 0.468 | 0.504 | 0.63 | 0.709 | 0.785 | 0.719 | 0.724 |
| NCI-H2347 | 0.55 | 0.619 | 0.451 | 0.551 | 0.248 | 0.281 | 0.251 | 0.284 | 0.282 | 0.459 | 0.427 | 0.413 | 0.574 | 0.509 | 0.752 | 0.497 | 0.582 | 0.709 | 0.738 |
| LCLC-97TM1 | 0.383 | 0.539 | 0.48 | 0.419 | 0.179 | 0.202 | 0.184 | 0.193 | 0.187 | 0.555 | 0.642 | 0.716 | 0.557 | 0.679 | 0.405 |  | 0.37 | 0.344 | 0.265 |
| EPLC-272H | 0.553 | 0.63 | 0.57 | 0.586 | 0.246 | 0.273 | 0.27 | 0.333 | 0.298 | 0.275 | 0.423 | 0.274 | 0.283 | 0.259 | 0.944 | 0.986 | 0.869 | 0.895 | 0.822 |
